# Biological target: T1, hNPRA (Homo sapiens, UniProt P16066)
# T1 construct: expressed in transfected cells
# T1 sequence (P16066 33-1061): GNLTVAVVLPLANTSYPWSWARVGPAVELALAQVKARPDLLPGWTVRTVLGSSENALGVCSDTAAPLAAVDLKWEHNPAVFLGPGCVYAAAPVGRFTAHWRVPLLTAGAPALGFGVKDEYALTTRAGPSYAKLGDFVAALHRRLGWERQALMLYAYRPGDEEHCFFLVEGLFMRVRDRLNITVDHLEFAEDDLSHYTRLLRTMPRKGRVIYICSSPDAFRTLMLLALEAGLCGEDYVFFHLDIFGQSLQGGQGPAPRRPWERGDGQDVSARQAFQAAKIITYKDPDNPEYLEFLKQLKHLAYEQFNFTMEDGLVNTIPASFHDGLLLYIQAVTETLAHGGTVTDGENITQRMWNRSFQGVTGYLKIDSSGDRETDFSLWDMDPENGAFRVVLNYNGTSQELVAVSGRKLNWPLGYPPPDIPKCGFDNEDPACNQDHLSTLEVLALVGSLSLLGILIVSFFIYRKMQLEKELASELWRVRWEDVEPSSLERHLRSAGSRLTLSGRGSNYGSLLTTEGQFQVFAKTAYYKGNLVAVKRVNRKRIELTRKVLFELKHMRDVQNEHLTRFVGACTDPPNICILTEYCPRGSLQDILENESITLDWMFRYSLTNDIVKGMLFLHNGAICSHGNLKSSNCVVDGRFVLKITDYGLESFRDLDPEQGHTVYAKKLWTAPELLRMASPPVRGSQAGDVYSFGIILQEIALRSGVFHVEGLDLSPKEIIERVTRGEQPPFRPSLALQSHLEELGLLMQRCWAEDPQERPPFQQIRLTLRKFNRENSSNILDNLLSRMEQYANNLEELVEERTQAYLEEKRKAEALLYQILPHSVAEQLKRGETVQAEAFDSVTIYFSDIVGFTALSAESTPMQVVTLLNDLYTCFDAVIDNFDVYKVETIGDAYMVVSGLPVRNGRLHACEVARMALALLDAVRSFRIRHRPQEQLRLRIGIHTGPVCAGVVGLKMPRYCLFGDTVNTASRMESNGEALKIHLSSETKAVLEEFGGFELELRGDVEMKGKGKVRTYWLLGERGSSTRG
# Assay: NPRA Functional Cell Assay (cGMP HTRF, NPRA HEK JumpIn stable cells)
# Format: cell-based
# Conditions: cGMP production, 1 hour at 37° C., 10-point dose response
# How it was run: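 cGMP HTRF read-out after 1 hour compound treatment at 37° C. of human NPRA-expressing HEK JumpIn cells, 1500 cells/well, in buffer with phosphodiesterase inhibitors IBMX and RO20 (100 uM each). Signal converted to [cGMP] by calibration curve; EC50s fitted by 4-parameter logistic; 50 nM h-ANP as positive response.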
row,SMILES,EC50
1,"CC(C)(C)[C@H]1CCc2nc3sc(C(=O)N[C@H](CCN4CCC5(CC4)CNC(=O)O5)c4ccc(-c5ccc(=O)[nH]c5)cc4)cc3cc2C1 (racemic) [Example 40, rac-(6S)-6-tert-butyl-N-[rac-(1R)-3-(2-oxo-1-oxa-3-aza-8-azoniaspiro[4.5]decan-8-yl)-1-[4-(6-oxo-1H-pyridin-3-yl)phenyl]propyl]-5,6,7,8-tetrahydrothieno[2,3-b]quinoline-2-carboxamide;formate]",655 nM
2,"CC(C)(C)[C@H]1CCc2nc3sc(C(=O)N[C@H](CCN4CCC(O)C4)c4ccc(-c5ccc(=O)[nH]c5)cc4)cc3cc2C1 (mixture of isomers) [Example 41, rac-(6S)-6-tert-butyl-N-[rac-(1R)-3-(3-hydroxypyrrolidin-1-ium-1-yl)-1-[4-(6-oxo-1H-pyridin-3-yl)phenyl]propyl]-5,6,7,8-tetrahydrothieno[2,3-b]quinoline-2-carboxamide;formate]",656 nM
3,"CNCC[C@@H](NC(=O)c1cc2cc3c(nc2s1)CC[C@H](C(C)(C)C)C3)c1ccc(-c2ccc(=O)[nH]c2)cc1 (racemic) [Example 42, rac-(6S)-6-tert-butyl-N-[rac-(1R)-3-(methylamino)-1-[4-(6-oxo-1H-pyridin-3-yl)phenyl]propyl]-5,6,7,8-tetrahydrothieno[2,3-b]quinoline-2-carboxamide]",658 nM
4,"COC[C@@H]1CCCN1CC[C@@H](NC(=O)c1cc2cc3c(nc2s1)CC[C@H](C(C)(C)C)C3)c1ccc(-c2ccc(=O)[nH]c2)cc1 (racemic) [Example 43, rac-(6S)-6-tert-butyl-N-[rac-(1R)-1-[4-(6-oxo-1H-pyridin-3-yl)phenyl]-3-[rac-(2S)-2-(methoxymethyl)pyrrolidin-1-yl]propyl]-5,6,7,8-tetrahydrothieno[2,3-b]quinoline-2-carboxamide]",663 nM
5,"CC(C)(C)[C@H]1CCc2nc3sc(C(=O)N[C@H](CCN4CCC(C(=O)O)CC4)c4ccc(-c5ccc(=O)[nH]c5)cc4)cc3cc2C1 (racemic) [Example 44, 1-[rac-(3R)-3-[4-(6-oxo-1H-pyridin-3-yl)phenyl]-3-[rac-(6S)-6-tert-butyl-5,6,7,8-tetrahydrothieno[2,3-b]quinoline-2-carbonyl]amino]propyl] piperidin-1-ium-4-carboxylic acid;formate]",665 nM
6,"CC1(O)CCN(CC[C@@H](NC(=O)c2cc3cc4c(nc3s2)CC[C@H](C(C)(C)C)C4)c2ccc(-c3ccc(=O)[nH]c3)cc2)CC1 (racemic) [Example 45, rac-(6S)-6-tert-butyl-N-[rac-(1R)-3-(4-hydroxy-4-methyl-piperidin-1-ium-1-yl)-1-[4-(6-oxo-1H-pyridin-3-yl)phenyl]propyl]-5,6,7,8-tetrahydrothieno[2,3-b]quinoline-2-carboxamide;formate]",673 nM
7,"CC1(CN)CN(CC[C@@H](NC(=O)c2cc3cc4c(nc3s2)CC[C@H](C(C)(C)C)C4)c2ccc(-c3ccc(=O)[nH]c3)cc2)C1 (racemic) [Example 46, [3-methyl-1-[rac-(3R)-3-[4-(6-oxo-1H-pyridin-3-yl)phenyl]-3-[[rac-(6S)-6-tert-butyl-5,6,7,8-tetrahydrothieno[2,3-b]quinoline-2-carbonyl]amino]propyl]azetidin-3-yl]methylammonium;formate]",673 nM
8,"CC(C)(C)[C@H]1CCc2nc3sc(C(=O)N[C@H](CCN4CCCC5(CC5)C4)c4ccc(-c5ccc(=O)[nH]c5)cc4)cc3cc2C1 (racemic) [Example 47, rac-(6S)-6-tert-butyl-N-[rac-(1R)-3-(5-azoniaspiro[2.5]octan-5-yl)-1-[4-(6-oxo-1H-pyridin-3-yl)phenyl]propyl]-5,6,7,8-tetrahydrothieno[2,3-b]quinoline-2-carboxamide;formate]",674 nM
9,"CC(C)(C)[C@H]1CCc2nc3sc(C(=O)N[C@H](CCN4CC(O)C4)c4ccc(-c5ccc(=O)[nH]c5)cc4)cc3cc2C1 (racemic) [Example 48, rac-(6S)-6-tert-butyl-N-[rac-(1R)-3-(3-hydroxyazetidin-1-ium-1-yl)-1-[4-(6-oxo-1H-pyridin-3-yl)phenyl]propyl]-5,6,7,8-tetrahydrothieno[2,3-b]quinoline-2-carboxamide;formate]",679 nM
10,"CC(C)(C)[C@H]1CCc2nc3sc(C(=O)N[C@H](CCNCCO)c4ccc(-c5ccc(=O)[nH]c5)cc4)cc3cc2C1 (racemic) [Example 49, 2-hydroxyethyl-[rac-(3R)-3-[4-(6-oxo-1H-pyridin-3-yl)phenyl]-3-[[rac-(6S)-6-tert-butyl-5,6,7,8-tetrahydrothieno[2,3-b]quinoline-2-carbonyl]amino}propyl] ammonium;formate]",682 nM
11,"CN(CC[C@@H](NC(=O)c1cc2cc3c(nc2s1)CC[C@H](C(C)(C)C)C3)c1ccc(-c2ccc(=O)[nH]c2)cc1)C1CCCC1 (racemic) [Example 50, cyclopentyl-methyl-[rac-(3R)-3-[4-(6-oxo-1H-pyridin-3-yl)phenyl]-3-[rac-(6S)-6-tert-butyl-5,6,7,8-tetrahydrothieno[2,3-b]quinoline-2-carbonyl]amino]propyl] ammonium;formate]",696 nM
12,"CC(C)(C)[C@H]1CCc2nc3sc(C(=O)N[C@H](CCN4C[C@@H](O)[C@H](O)C4)c4ccc(-c5ccc(=O)[nH]c5)cc4)cc3cc2C1 (racemic) [Example 51, rac-(6S)-6-tert-butyl-N-[rac-(1R)-1-[4-(6-oxo-1H-pyridin-3-yl)phenyl]-3-[rac-(3R,4R)-3,4-dihydroxypyrrolidin-1-ium-1-yl]propyl]-5,6,7,8-tetrahydrothieno[2,3-b]quinoline-2-carboxamide;formate]",705 nM
13,"CC(C)(C)[C@H]1CCc2nc3sc(C(=O)N[C@H](CCNC4CCCC4)c4ccc(-c5ccc(=O)[nH]c5)cc4)cc3cc2C1 (racemic) [Example 52, cyclopentyl-[rac-(3R)-3-[4-(6-oxo-1H-pyridin-3-yl)phenyl]-3-[[rac-(6S)-6-tert-butyl-5,6,7,8-tetrahydrothieno[2,3-b]quinoline-2-carbonyl]amino]propyl] ammonium;formate]",729 nM
14,"CC(C)(C)[C@H]1CCc2nc3sc(C(=O)N[C@H](CCN4CC5CC4CO5)c4ccc(-c5ccc(=O)[nH]c5)cc4)cc3cc2C1 (mixture of isomers) [Example 53, rac-(6S)-6-tert-butyl-N-[rac-(1R)-3-(2-oxa-5-azoniabicyclo[2.2. 1]heptan-5-yl)-1-[4-(6-oxo-1H-pyridin-3-yl)phenyl]propyl]-5,6,7,8-tetrahydrothieno[2,3-b]quinoline-2-carboxamide;formate]",755 nM
15,"CC(C)(C)[C@H]1CCc2nc3sc(C(=O)N[C@H](CCNC4CCNC(=O)C4)c4ccc(-c5ccc(=O)[nH]c5)cc4)cc3cc2C1 (mixture of isomers) [Example 54, (2-oxo-4-piperidyl)-[rac-(3R)-3-[4-(6-oxo-1H-pyridin-3-yl)phenyl]-3-[rac-(6S)-6-tert-butyl-5,6,7,8-tetrahydrothieno[2,3-b]quinoline-2-carbonyl]amino]propyl] ammonium;formate]",758 nM
16,"CC(C)(C)[C@H]1CCc2nc3sc(C(=O)N[C@H](CCN4CCCC(O)C4)c4ccc(-c5ccc(=O)[nH]c5)cc4)cc3cc2C1 (mixture of isomers) [Example 55, rac-(6S)-6-tert-butyl-N-[rac-(1R)-3-(3-hydroxypiperidin-1-ium-1-yl)-1-[4-(6-oxo-1H-pyridin-3-yl)phenyl]propyl]-5,6,7,8-tetrahydrothieno[2,3-b]quinoline-2-carboxamide;formate]",792 nM
17,"CC(C)(C)[C@H]1CCc2nc3sc(C(=O)N[C@H](CCN4CCCC(C(=O)O)C4)c4ccc(-c5ccc(=O)[nH]c5)cc4)cc3cc2C1 (mixture of isomers) [Example 56, 1-[rac-(3R)-3-[4-(6-oxo-1H-pyridin-3-yl)phenyl]-3-[[rac-(6S)-6-tert-butyl-5,6,7,8-tetrahydrothieno[2,3-b]quinoline-2-carbonyl]amino]propyl]piper idin-1-ium-3-carboxylic acid;formate]",811 nM
18,"CC(C)(C)[C@H]1CCc2nc3sc(C(=O)N[C@H](CCNC4CNC(=O)C4)c4ccc(-c5ccc(=O)[nH]c5)cc4)cc3cc2C1 (mixture of isomers) [Example 57, (5-oxopyrrolidin-3-yl)-[rac-(3R)-3-[4-(6-oxo-1H-pyridin-3-yl)phenyl]-3-[[rac-(6S)-6-tert-butyl-5,6,7,8-tetrahydrothieno[2,3-b]quinoline-2-carbonyl]amino]propyl] ammonium;formate]",889 nM
